Data: US20230382863A1, “MEK INHIBITORS AND USES THEREOF” (Ikena Oncology, Inc., priority 2022, published 2023)
Read-outs that look alike come from different tables or passages of the source.

Tests used:
uMEK/BRAF = uMEK/BRAF (Homo sapiens (Human), UniProt Q02750); assay: MEK-RAF Binding Assay (uMEK/BRAF HTRF)
pERK HCT-116 (G13D) = pERK HCT-116 (G13D) ICW (4 hour); format: cell-based
[1] = Cassette pharmacokinetics studies in mice; format: in vivo; conditions: male, Balb/c, plasma; Mouse, PO, 5 mg/kg
Description: Pharmacokinetics studies were conducted using cassette dosing protocols, with test compounds administered per mouse. Treatment groups were 3 mice (˜6-8 weeks old, ˜20-30 g Balb/c male mice) per route of administration. Compounds were formulated in 5% DMSO and 95% PEG400 with final concentrations of 0.5 mg/mL for IV and PO dosing. Compounds were dosed at 2 mg/kg for IV dosing and 5 mg/kg for PO dosing. Blood samples were withdrawn at 0.083, 0.25, 0.5, 1.0, 2.0, 4.0, 6.0, 8.0, and 24 hours following IV dosing, and 0.25, 0.5, 1.0, 2.0, 4.0, 6.0, 8.0, and 24 hours following PO dosing. Blood samples were centrifuged at 4,000 g for 5 minutes at 4° C. to obtain plasma samples. Plasma samples were diluted with acetonitrile containing internal standard, vortexed for 30 seconds, then centrifuged at 4,000 rpm for 15 minutes at 4° C. The supernatant was diluted with water, and compound concentration was determined by HPLC/MS/MS compared to calibration standards of 0.5-1,000 ng/mL.
Where route is listed as “IV*”, the compound was dosed IV at 1 mg/kg.

[2] = test system: Phosphorylation of ERK1/2 in AsPC1 cells; assay: 4 hour pERK1/2 HTRF Assay; format: cell-based; conditions: Homo sapiens, ASPC1, read-out: pERK AsPC-1 HTRF (4 hour): Average IC50 (nM); AsPC-1, 4 hour
Description: AsPC1 cells were seeded at 20,000 cells/well overnight in 96-well plates, then treated with a 12-point dose response of compounds (Starting dose of 3000 nM and 3-fold dilution) for 4 hours. AsPC1 cells are a K-Ras mutant cell line. Phosphorylation of ERK1/2 on residues Thr202 and Tyr204 were detected using a Homogenous Time-Resolved Fluorescence (HTRF) assay (Cisbio Cat #64ERKPEG). Briefly, ERK phosphorylation was detected using a sandwich assay format using two phospho-ERK specific antibodies, one labelled with EU^3+-Cryptate (donor) and the second with d2 (acceptor). The Fluorescence Resonance Energy Transfer (FRET) towards the d2 acceptor was detected at a wavelength of 665 nm. ERK1/2 phosphorylation levels were normalized to total ERK1/2 protein levels in each well. IC50 values were determined by fitting a variable slope, four parameters curve to the compound concentration to normalized Phospho-ERK1/2 relationship.

MEK1-CRAF complex = MEK1-CRAF complex (Homo sapiens (Human), UniProt Q02750); assay: Stabilization of MEK1-CRAF complex assay (AlphaLISA); format: binding
Description: MEK1 was diluted to 4 nM, and nickel chelate donor beads and glutathione acceptor beads were diluted to 80 μg/mL. CRAF was diluted to a top concentration of 160 nM, which was subsequently diluted to 80, 40, 20, 10, 5, 2.5, 1.25, and 0.625 nM through 1:2 serial dilution.
Exemplary MEK inhibitor compounds (0, 0.01, 0.1, or 1 μM) were added to a 384-AlphaPlate (PerkinElmer, 6008350) by a digital liquid dispenser (Tecan D300e) based on a total volume of 20 μL reaction mixture.
5 μL 4×MEK1 stock solution was added to wells A1-P20 by multichannel pipettes. The plate was sealed with clear olefin sealing tape (Thermo Scientific, 232701), centrifuged at 1000 rpm for 1 minute, and incubated at room temperature for 30 minutes.
5 μL 4×CRAF stock solution at different concentrations or 5 μL or 10 μL AlphaLISA buffer was added by multichannel pipettes. The plate was sealed, centrifuged at 1000 rpm for 1 minute, and incubated at room temperature for 60 minutes.
5 μL 4×glutathione acceptor beads were first added to all wells by multichannel pipettes. The ambient light was subsequently adjusted to <100 lux (light meter) before adding 5 μL 4×nickel chelate donor beads to the same wells. From this step on, the plate was covered with a black plate cover, centrifuged at 1000 rpm for 1 minute, and incubated at room temperature for 60 minutes.
Data were collected on a PHERAStar FSX (BMG LABTECH) using the AlphaLISA module (excitation: 680 nm, emission: 615 nm), with a gain of 3600. The excitation time was 0.30 seconds, and data collection started after a 0.04-second delay for a total integration time of 0.60 seconds.
The individual AlphaLISA counts of wells with exemplary MEK inhibitor compound were divided by the average AlphaLISA counts of wells without compound to obtain AlphaLISA signal/background ratio (S/B). The dissociation constant (KD) of MEK1-CRAF was calculated using nonlinear regression curve fit in GraphPad PRISM® 9.0 software.

[3] = Homo sapiens, read-out: pERK HCT-116 (G13D) ICW (4 hour): Average IC50 (nM)
[4] = read-out: pERK HCT-116 (G13D) ICW (4 hour): Average IC50

IC50 (uMEK/BRAF) [nM] | IC50 (pERK HCT-116 (G13D); [3]) [nM] | Compound | other results
< 100 | < 100 | Cc1c(Oc2cccc(N=S(C)(N)=O)c2)c(C(=O)NC2CC2)c(Nc2ccc(I)cc2F)n(C)c1=O (stereo in doubt) [Compound I-8, (R)-4-(3-((amino(methyl)oxo-lambda6-sulfaneylidene)amino)phenoxy)-N-cyclopropyl-2-((2-fluoro-4-iodophenyl)amino)-1,5-dimethyl-6-oxo-1,6-dihydropyridine-3-carboxamide] | –
< 100 | < 100 | CNS(=O)(=O)Nc1cccc(Oc2c(C(=O)NC3CC3)c(Nc3ccc(I)cc3F)n(C)c(=O)c2C)c1C [Compound I-3] | –
< 100 | < 100 | CNS(=O)(=O)Nc1cccc(Oc2c(C(=O)NC3CC3)c(Nc3ccc(I)cc3F)n(C)c(=O)c2C)c1F [Compound I-4, N-cyclopropyl-4-{2-fluoro-3-[(methylsulfamoyl)amino]phenoxy}-2-[(2-fluoro-4-iodophenyl)amino]-1,5-dimethyl-6-oxopyridine-3-carboxamide] | –
< 100 | < 100 | CNS(=O)(=O)Nc1cccc(Oc2c(C(=O)NC3CC3)c(Nc3ccc(I)cc3F)n(C)c(=O)c2C)c1 [Compound I-5, N-cyclopropyl-2-((2-fluoro-4-iodophenyl)amino)-1,5-dimethyl-4-(3-((N-methylsulfamoyl)amino)phenoxy)-6-oxo-1,6-dihydropyridine-3-carboxamide] | –
< 100 | < 100 | Cc1c(Oc2cccc(NS(N)(=O)=O)c2)c(C(=O)NC2CC2)c(Nc2ccc(I)cc2F)n(C)c1=O [Compound I-6] | –
< 100 | < 100 | CNS(=O)(=O)Nc1cc(F)cc(Oc2c(C(=O)NC3CC3)c(Nc3ccc(I)cc3F)n(C)c(=O)c2C)c1 [Compound I-10] | –
< 100 | 100 to 1000 | Cc1c(Oc2cccc(CS(=O)(=O)N(C)C)c2)c(C(=O)NC2CC2)c(Nc2ccc(I)cc2F)n(C)c1=O [Compound I-11] | –
< 100 | 1000 to 10000 | CNS(=O)(=O)n1ccc2c(Oc3c(C(=O)NC4CC4)c(Nc4ccc(I)cc4F)n(C)c(=O)c3C)cccc21 [Compound I-12] | –
100 to 1000 | 100 to 1000 | Cc1c(Oc2ccc3c(c2)NS(=O)(=O)NC3)c(C(=O)NC2CC2)c(Nc2ccc(I)cc2F)n(C)c1=O [Compound I-13] | –
100 to 1000 | 100 to 1000 | CNS(=O)(=O)Nc1cc(Oc2c(C(=O)NC3CC3)c(Nc3ccc(I)cc3F)n(C)c(=O)c2C)ccc1F [Compound I-15] | –
100 to 1000 | 100 to 1000 | Cc1c(Oc2cccc(CS(N)(=O)=O)c2)c(C(=O)NC2CC2)c(Nc2ccc(I)cc2F)n(C)c1=O [Compound I-16] | –
100 to 1000 | 100 to 1000 | CNS(=O)(=O)Nc1ccc(F)c(Oc2c(C(=O)NC3CC3)c(Nc3ccc(I)cc3F)n(C)c(=O)c2C)c1 [Compound I-17] | –
100 to 1000 | 1000 to 10000 | CNS(=O)(=O)Nc1cc(Oc2c(C(=O)NC3CC3)c(Nc3ccc(I)cc3F)n(C)c(=O)c2C)ccc1OC [Compound I-18] | –
100 to 1000 | 1000 to 10000 | CNS(=O)(=O)Nc1cc(Oc2c(C(=O)NC3CC3)c(Nc3ccc(I)cc3F)n(C)c(=O)c2C)ccc1C [Compound I-22] | –
100 to 1000 | – | CNS(=O)(=O)Cc1cccc(Oc2c(C(=O)NC3CC3)c(Nc3ccc(I)cc3F)n(C)c(=O)c2C)c1 [Compound I-23, N-cyclopropyl-2-((2-fluoro-4-iodophenyl)amino)-1,5-dimethyl-4-(3-((N-methylsulfamoyl)methyl)phenoxy)-6-oxo-1,6-dihydropyridine-3-carboxamide] | IC50 (pERK HCT-116 (G13D); [4]): 1000 to 10000 nM
1000 to 10000 | 100 to 1000 | CNS(=O)(=O)Nc1cccc(Oc2c(C(=O)N(C)C3CC3)c(Nc3ccc(I)cc3F)n(C)c(=O)c2C)c1C [Compound I-24] | –
1000 to 10000 | 1000 to 10000 | CNS(=O)(=O)Nc1cc(OC)cc(Oc2c(C(=O)NC3CC3)c(Nc3ccc(I)cc3F)n(C)c(=O)c2C)c1 [Compound I-25] | –
1000 to 10000 | 1000 to 10000 | CNS(=O)(=O)Nc1ccc(OC)c(Oc2c(C(=O)NC3CC3)c(Nc3ccc(I)cc3F)n(C)c(=O)c2C)c1 [Compound I-26] | –
– | – | CNS(=O)(=O)Nc1cccc(Oc2c(C(=O)NC3CC3)c(Nc3ccc(I)cc3F)n(C)c(=O)c2C)c1OC(F)(F)F [Compound I-40] | AUC(0-inf) [1]: 2940 ng·h/mL; AUC(0-t) [1]: 2750 ng·h/mL; Cmax [1]: 783 ng/mL; Tmax [1]: 0.8 h; half-life [1]: 1.82 h; IC50 [2]: < 100 nM; KD Ratio (mean), compound to DMSO (MEK1-CRAF complex; compound 0.01 μM): 0.87; KD Ratio (mean), compound to DMSO (MEK1-CRAF complex; compound 0.1 μM): 0.62; KD Ratio (mean), compound to DMSO (MEK1-CRAF complex; compound 1 μM): 0.47
– | – | CNS(=O)(=O)Nc1cccc(Oc2c(C(=O)NC(C)C)c(Nc3ccc(I)cc3F)n(C)c(=O)c2C)c1Cl [Compound I-41] | AUC(0-inf) [1]: 3470 ng·h/mL; AUC(0-t) [1]: 3340 ng·h/mL; Cmax [1]: 1260 ng/mL; Tmax [1]: 0.5 h; half-life [1]: 1.62 h; KD Ratio (mean), compound to DMSO (MEK1-CRAF complex; compound 0.01 μM): 0.79; KD Ratio (mean), compound to DMSO (MEK1-CRAF complex; compound 0.1 μM): 0.57; KD Ratio (mean), compound to DMSO (MEK1-CRAF complex; compound 1 μM): 0.48
< 100 | – | CNS(=O)(=O)Nc1cccc(Oc2c(C(=O)NCC(F)(F)F)c(Nc3ccc(I)cc3F)n(C)c(=O)c2C)c1Cl [Compound I-45] | IC50 [2]: < 100 nM; KD Ratio (mean), compound to DMSO (MEK1-CRAF complex; compound 0.01 μM): 0.62; KD Ratio (mean), compound to DMSO (MEK1-CRAF complex; compound 0.1 μM): 0.42; KD Ratio (mean), compound to DMSO (MEK1-CRAF complex; compound 1 μM): 0.38
– | – | CCNC(=O)c1c(Oc2cccc(NS(=O)(=O)NC)c2Cl)c(C)c(=O)n(C)c1Nc1ccc(I)cc1F [Compound I-54] | AUC(0-inf) [1]: 4540 ng·h/mL; AUC(0-t) [1]: 4390 ng·h/mL; Cmax [1]: 1670 ng/mL; Tmax [1]: 0.5 h; half-life [1]: 1.6 h; KD Ratio (mean), compound to DMSO (MEK1-CRAF complex; compound 0.01 μM): 0.58; KD Ratio (mean), compound to DMSO (MEK1-CRAF complex; compound 0.1 μM): 0.36; KD Ratio (mean), compound to DMSO (MEK1-CRAF complex; compound 1 μM): 0.35
100 to 1000 | 100 to 1000 | Cc1c(Oc2ccc3c(c2)CNS(=O)(=O)N3)c(C(=O)NC2CC2)c(Nc2ccc(I)cc2F)n(C)c1=O [Compound I-59] | –
100 to 1000 | < 100 | Cc1c(Oc2ccc3c(c2)CN(C)S(=O)(=O)N3)c(C(=O)NC2CC2)c(Nc2ccc(I)cc2F)n(C)c1=O [Compound I-60] | –
100 to 1000 | 100 to 1000 | Cc1c(Oc2ccc3c(c2)CNS(=O)(=O)N3C)c(C(=O)NC2CC2)c(Nc2ccc(I)cc2F)n(C)c1=O [Compound I-61] | –
< 100 | < 100 | Cc1c(Nc2ccc3c(c2)CNS(=O)(=O)N3)c(C(=O)NC2CC2)c(Nc2ccc(I)cc2F)n(C)c1=O [Compound I-62] | –
100 to 1000 | – | N-cyclopropyl-2-[(2-fluoro-4-iodophenyl)amino]-4-(3-methanesulfonoimidamidophenoxy)-1,5-dimethyl-6-oxopyridine-3-carboxamide [Compound I-20] | IC50 (pERK HCT-116 (G13D); [4]): 100 to 1000 nM
